# In patent publication US8653087B2, “Pyrido [5, 4-D] pyrimidines as cell proliferation inhibitors” (Boehringer Ingelheim International GmbH, priority 2008, dated 2014):
# Target: B-Raf (V600E)-kinase (Homo sapiens (Human), UniProt P15056, V600E)
# Test: Kinase test B-RAF (V600E)
# Type: biochemical
# Conditions: B-RAF (V600E) kinase test, 250 μM ATP
# Summary of the method: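 Read-out is DELFIA europium TRF of phospho-MEK (Ser217/221) on biotinylated MEK1 bound to streptavidin plates, IC50 from dose-response. Reaction ran 60 min at RT with 250 μM ATP, after a 24 h RT preincubation of compound with B-Raf (V600E) kinase, 5% DMSO final.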
# Sequence of B-Raf (V600E)-kinase (P15056 whole entry V600E): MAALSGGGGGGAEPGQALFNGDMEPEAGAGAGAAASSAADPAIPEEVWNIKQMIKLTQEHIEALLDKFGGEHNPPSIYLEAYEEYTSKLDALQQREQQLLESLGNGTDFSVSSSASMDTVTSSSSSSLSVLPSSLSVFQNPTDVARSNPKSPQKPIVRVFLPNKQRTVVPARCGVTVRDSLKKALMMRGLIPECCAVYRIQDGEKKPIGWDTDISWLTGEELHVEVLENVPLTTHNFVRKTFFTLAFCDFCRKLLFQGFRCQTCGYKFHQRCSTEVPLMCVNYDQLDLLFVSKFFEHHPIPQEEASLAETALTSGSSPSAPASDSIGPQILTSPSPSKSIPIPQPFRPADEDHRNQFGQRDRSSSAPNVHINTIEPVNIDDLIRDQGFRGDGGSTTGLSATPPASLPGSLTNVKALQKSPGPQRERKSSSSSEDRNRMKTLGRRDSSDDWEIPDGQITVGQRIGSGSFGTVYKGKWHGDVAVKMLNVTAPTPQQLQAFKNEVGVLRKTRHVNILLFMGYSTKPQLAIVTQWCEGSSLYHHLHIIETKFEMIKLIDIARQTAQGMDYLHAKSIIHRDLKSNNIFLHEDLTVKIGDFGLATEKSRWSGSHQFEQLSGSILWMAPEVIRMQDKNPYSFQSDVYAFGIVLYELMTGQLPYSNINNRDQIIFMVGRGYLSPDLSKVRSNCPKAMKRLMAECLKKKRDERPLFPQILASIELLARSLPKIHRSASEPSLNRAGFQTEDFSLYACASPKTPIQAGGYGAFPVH
row,IC50 [nM],Structure (SMILES)
1,6,Cc1ccc(C(=O)Nc2cc(N(C)CCN(C)C)cc(C(F)(F)F)c2)cc1Nc1ncnc2cnc(N3CC[C@H](F)C3)nc12 [III-438]
2,1,Cc1ccc(C(=O)Nc2cc(C(C)(C)C)on2)cc1Nc1ncnc2cnc(N3CCC4(CCN(C)C4)C3)nc12 (stereo not drawn) [III-603]
3,15,Cc1ccc(C(=O)Nc2cccc(N(C)C)c2)cc1Nc1ncnc2cnc(N3CCNCC3)nc12 [III-263]
4,2,CN(C)C1CCN(c2ncc3ncnc(Nc4cc(C(=O)Nc5cc(C(C)(C)C)on5)ccc4F)c3n2)C1 (stereo not drawn) [III-399]
5,19,CCN1CCN(c2cc(NC(=O)c3ccc(C)c(Nc4ncnc5c(N)nc(N(C)C)nc45)c3)cc(C(F)(F)F)c2)CC1 [I-79]
6,8,Cc1ccc(C(=O)Nc2cc(N3CCN(CC(C)C)CC3)cc(C(F)(F)F)c2)cc1Nc1ncnc2cnc(N3CC[C@H](F)C3)nc12 [III-455]
7,3,COc1ccc(C(=O)Nc2ccc(C)c(Nc3ncnc4cnc(N(C)C)nc34)c2)cc1C(F)(F)F [IV-15]
8,2,Cc1ccc(C(=O)Nc2cc(CN3CCCC3)cc(C(F)(F)F)c2)cc1Nc1ncnc2cnc(NCc3ccncc3)nc12 [III-114]
9,1,Cc1ccc(C(=O)Nc2cc(N(C)CCN(C)C)cc(C(F)(F)F)c2)cc1Nc1ncnc2cnc(NCc3ccncc3)nc12 [III-173]
10,2,COc1ccc(NC(=O)c2ccc(C)c(Nc3ncnc4cnc(N5CCN(C)CC5)nc34)c2)cc1C(F)(F)F [III-1]
11,4,Cc1ccc(C(=O)Nc2cc(N3CCN(CC(C)C)CC3)cc(C(F)(F)F)c2)cc1Nc1ncnc2cnc(N3CCOCC3)nc12 [III-460]
12,3,Cc1ccc(NC(=O)c2cc(N3CCN(C)CC3)cc(C(F)(F)F)c2)cc1Nc1ncnc2cnc(N(C)C)nc12 [IV-13]
13,1,Cc1ccc(C(=O)Nc2cccc(OC(F)(F)F)c2)cc1Nc1ncnc2cnc(N3CC[C@H](F)C3)nc12 [III-290]
14,1,Cc1ccc(C(=O)Nc2cc(C(C)(C)C)nn2C)cc1Nc1ncnc2cnc(N3CCOCC3)nc12 [III-513]
15,30,CC(C)(C#N)c1cccc(C(=O)Nc2cccc(Nc3ncnc4c(N)ncnc34)c2)c1 [VIII-2]
16,1,COc1ccc(NC(=O)c2ccc(C)c(Nc3ncnc4cnc(N5CCCN(C)CC5)nc34)c2)cc1C(F)(F)F [III-443]
17,4,COc1ccc(NC(=O)c2ccc(C)c(Nc3ncnc4cnc(N5CCC[C@H]5CO)nc34)c2)cc1C(F)(F)F [III-546]
18,2,Cc1ccc(C(=O)Nc2cc(C(C)(C)C)n[nH]2)cc1Nc1ncnc2cnc(NCc3ccccc3)nc12 [III-512]
19,198,Cc1ccc(C(=O)Nc2nnc(C(F)(F)F)s2)cc1Nc1ncnc2cnc(N3CCN(C)CC3)nc12 [III-296]
20,< 1,COCCN1CCN(c2ncc3ncnc(Nc4cc(C(=O)Nc5cc(C(F)(F)F)ccn5)ccc4C)c3n2)CC1 [III-426]
21,2000,CCCS(=O)(=O)Nc1ccc(C)c(Nc2ncnc3cnc(N4CCN(C)CC4)nc23)c1 [IV-65]
22,< 1,Cc1ccc(C(=O)Nc2cc(N(C)CCN(C)C)cc(C(F)(F)F)c2)cc1Nc1ncnc2cnc(NCc3cccnc3)nc12 [III-168]
23,2,Cc1ccc(C(=O)Nc2cc(N(C)CCN(C)C)cc(C(F)(F)F)c2)cc1Nc1ncnc2cnc(NCc3ccccn3)nc12 [III-172]
24,4,CCN1CCN(c2cc(NC(=O)c3ccc(C)c(Nc4ncnc5cnc(N6CC[C@H](F)C6)nc45)c3)cc(C(F)(F)F)c2)CC1 [III-439]

row,IC50 [nM],Structure (SMILES)
1,3,Cc1cn(-c2cc(NC(=O)c3ccc(C)c(Nc4ncnc5cnc(N6CCC(F)(F)C6)nc45)c3)cc(C(F)(F)F)c2)cn1 [III-450]
2,2,COc1ccc(C(=O)Nc2cc(C(C)(C)C)on2)cc1Nc1ncnc2cnc(N3CCCN(C)CC3)nc12 [III-96]
3,13,Cc1ccc(C(=O)Nc2cc(C(C)(C)C)on2)cc1Nc1ncnc2cnc(NCC(C)C)nc12 [III-487]
4,3,Cc1ccc(C(=O)Nc2cc(C(C)(C)C)on2)cc1Nc1ncnc2cnc(N3CCC(N4CCCCC4)CC3)nc12 [III-485]
5,7,Cc1ccc(NC(=O)c2cccc(C(F)(F)F)c2)cc1Nc1ncnc2c(N)nc(N3CCCN(c4ccncc4)CC3)nc12 [II-12]
6,< 1,Cc1ccc(C(=O)Nc2cccc(N(C)C)c2)cc1Nc1ncnc2cnc(N3CC[C@@H](F)C3)nc12 [III-243]
7,3,Cc1ccc(C(=O)Nc2ccc(F)c(C(F)(F)F)c2)cc1Nc1ncnc2cnc(N3CCCN(C)CC3)nc12 [III-216]
8,7,COc1ccc(NC(=O)c2ccc(C)c(Nc3ncnc4cnc(N5CCC(N6CCCCC6)CC5)nc34)c2)cc1C(F)(F)F [III-556]
9,2,CN1CCN(c2ncc3ncnc(Nc4cc(C(=O)Nc5cc(C(C)(C)C)on5)ccc4F)c3n2)CC1 [III-318]
10,3,COc1ccc(NC(=O)c2ccc(C)c(Nc3ncnc4cnc(N5CC[C@H](F)C5)nc34)c2)cc1C(F)(F)F [III-411]
11,2,Cc1ccc(C(=O)Nc2cc(CN3CCCC3)cc(C(F)(F)F)c2)cc1Nc1ncnc2cnc(N3CCC(F)CC3)nc12 [III-103]
12,20,Cc1ccc(C(=O)Nc2cccc(OC(F)(F)F)c2)cc1Nc1ncnc2cnc(N3CCCC3)nc12 [III-270]
13,50,Cc1ccc(NC(=O)c2cccc(C(F)(F)F)c2)cc1Nc1ncnc2c(N)nc(NN3CCN(C)CC3)nc12 [II-3]
14,3,Cc1ccc(C(=O)Nc2cc(C(C)(C)C)n[nH]2)cc1Nc1ncnc2c(N)nc(N3CCCN(C)CC3)nc12 [I-14]
15,2,Cc1ccc(C(=O)Nc2cc(C(C)(C)C)on2)cc1Nc1ncnc2cnc(NCc3ccccc3)nc12 [III-521]
16,9,COc1ccc(C(F)(F)F)cc1NC(=O)c1ccc(C)c(Nc2ncnc3cnc(N4CCCCC4)nc23)c1 [III-262]
17,162,Cc1ccc(C(=O)Nc2ccccc2)cc1Nc1ncnc2cnc(N3CC[C@@H](F)C3)nc12 [III-209]
18,2,COc1ccc(NC(=O)c2ccc(C)c(Nc3ncnc4cnc(N5CCN(C(C)C)CC5)nc34)c2)cc1C(F)(F)F [III-437]
19,< 1,Cc1ccc(C(=O)Nc2cc(C(C)(C)C)n[nH]2)cc1Nc1ncnc2cnc(N3CCOCC3)nc12 [III-515]
20,> 2000,Cc1ccc(C(=O)NCC2CCOC2)cc1Nc1ncnc2cnc(N3CC[C@@H](F)C3)nc12 (stereo partly drawn) [III-205]
21,1,Cc1ccc(C(=O)Nc2cc(C(C)(C)C)on2)cc1Nc1ncnc2cnc(N3CCN(CCN4CCOCC4)CC3)nc12 [III-370]
22,< 1,Cc1ccc(C(=O)Nc2cc(C(F)(F)F)ccn2)cc1Nc1ncnc2cnc(N3CCN(CC4CCN(C)CC4)CC3)nc12 [III-510]
23,40,Cc1ccc(C(=O)NCc2ccc(C(F)(F)F)cc2)cc1Nc1ncnc2cnc(N3CCCC3)nc12 [III-250]
24,1,COCCN1CCC(Nc2ncc3ncnc(Nc4cc(C(=O)Nc5cc(C(C)(C)C)on5)ccc4C)c3n2)CC1 [III-594]

row,IC50 [nM],Structure (SMILES)
1,14,CN(CCN1CCCC1)c1ncc2ncnc(Nc3cc(C(=O)Nc4cc(C(C)(C)C)on4)ccc3F)c2n1 [III-317]
2,2000,Cn1nc(C(C)(C)C)cc1NC(=O)c1cc(Cl)cc(Nc2ncnc3cnc(N4CCCC4)nc23)c1Cl [III-374]
3,10000,Cc1ccc(NS(=O)(=O)C2CCCCC2)cc1Nc1ncnc2cnc(N3CCN(C)CC3)nc12 [IV-55]
4,1,Cc1ccc(C(=O)Nc2cc(C(C)(C)C)nn2C)cc1Oc1ncnc2cnc(N3CCOCC3)nc12 [III-591]
5,10,COc1ccc(C(C)(C)C)cc1NC(=O)c1ccc(C)c(Nc2ncnc3cnc(N4CCCCC4)nc23)c1 [III-249]
6,7,COc1ccc(NC(=O)c2ccc(C)c(Nc3ncnc4cnc(N5CCN(C6CC6)CC5)nc34)c2)cc1C(F)(F)F [III-433]
7,7,COc1ccc(C(=O)Nc2ccc(OC)c(C(F)(F)F)c2)cc1Nc1ncnc2cnc(N3CCCCC3)nc12 [III-23]
8,> 150,COCCN(C)c1ncc2ncnc(Nc3cc(C(=O)Nc4cc(C(C)(C)C)on4)ccc3C(F)(F)F)c2n1 [III-55]
9,15000,Cc1ccc(C(=O)NCC2CCOC2)cc1Nc1ncnc2cnc(N3CCCC3)nc12 (stereo not drawn) [III-256]
10,1,Cc1ccc(C(=O)Nc2cc(C(C)(C)C)on2)cc1Nc1ncnc2c(N)nc(N3CCN(C4CCN(C)CC4)CC3)nc12 [I-10]
11,6,Cc1ccc(C(=O)Nc2cccc(C(C)(C)C)c2)cc1Nc1ncnc2cnc(N(C)CCN(C)C)nc12 [III-239]
12,8,CC(C)(C)c1cc(NC(=O)c2ccc(Cl)c(Nc3ncnc4cnc(N5CCCCCC5)nc34)c2)no1 [III-68]
13,7,Cc1ccc(NC(=O)c2cccc(C(F)(F)F)c2)cc1Nc1ncnc2c(N)nc(N3C[C@H](C)NC[C@H]3C)nc12 [II-13]
14,2,Cc1ccc(C(=O)Nc2cccc(S(=O)(=O)N(C)C)c2)cc1Nc1ncnc2cnc(N3CCOCC3)nc12 [III-320]
15,3,COc1ccc(NC(=O)c2ccc(C)c(Nc3ncnc4cnc(N5C[C@H]6C[C@@H]5CN6C)nc34)c2)cc1C(F)(F)F [III-431]
16,595,Cc1ccc(NS(=O)(=O)C2CC2)cc1Nc1ncnc2cnc(N3CCN(C)CC3)nc12 [IV-63]
17,15,Cc1ccc(NC(=O)c2cccc(C(F)(F)F)c2)cc1Nc1ncnc2c(N)nc(N(C)C)nc12 [II-7]
18,2,Cc1ccc(C(=O)Nc2cc(OCCN(C)C)cc(C(F)(F)F)c2)cc1Nc1ncnc2cnc(N3CCC(F)CC3)nc12 [III-145]
19,6,Cc1ccc(C(=O)Nc2cc(C(F)(F)F)ccn2)cc1Nc1ncnc2cnc(N(C)CCN(C)C)nc12 [III-279]
20,2,Cc1ccc(C(=O)Nc2cc(CN3CCCC3)cc(C(F)(F)F)c2)cc1Nc1ncnc2cnc(NCCc3ccccc3)nc12 [III-118]
21,4,Cc1ccc(C(=O)Nc2cc(CN3CCCC3)cc(C(F)(F)F)c2)cc1Nc1ncnc2cncnc12 [V-8]
22,2,Cc1ccc(C(=O)Nc2cccc(C(F)(F)F)c2)cc1Nc1ncnc2c(N)nc(N3CC(C)NC(C)C3)nc12 (stereo not drawn) [I-62]
23,2,COc1ncc2ncnc(Nc3cc(NC(=O)c4cccc(C(C)(C)C#N)c4)ccc3C)c2n1 [IV-40]
24,1,Cc1ccc(NC(=O)c2cccc(C(C)(C)C#N)c2)cc1Nc1ncnc2cnc(N(C)C3CCN(C)CC3)nc12 [IV-29]
